From the supplement of paper PMC10307832

Tests used:
Test in all cases: relative viability (nuclei count vs DMSO), 5 days (fraction); higher = more cells survive
[1] = compound: CN(NC(=O)CC(=O)NN(C)C(=S)c1ccccc1)C(=S)c1ccccc1 [Elesclomol] + CC(C)C[C@H](NC(=O)[C@H](Cc1ccccc1)NC(=O)c1cnccn1)B(O)O [Bortezomib] (partner 0.002 µM)
In short: (§1)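 Dosing by pin tool came one day after lung cancer cell lines were seeded in 1536-well plates, using either one drug or a fixed anchor-drug dose plus five library-drug doses (not always all listed) in √10 steps. After 5 days, nuclei were counted on 4× images. Relative viability is treated-well nuclei count divided by vehicle-well nuclei count, and values are medians of duplicate plates.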

[2] = compound: CN(NC(=O)CC(=O)NN(C)C(=S)c1ccccc1)C(=S)c1ccccc1 [Elesclomol] + CCNC(=O)c1noc(-c2cc(C(C)C)c(O)cc2O)c1-c1ccc(CN2CCOCC2)cc1 [Luminespib] (partner 0.01 µM)
In short: as §1

[3] = compound: CN(NC(=O)CC(=O)NN(C)C(=S)c1ccccc1)C(=S)c1ccccc1 [Elesclomol] + COc1cc2c(Oc3ccc(NC(=O)C4(C(=O)Nc5ccc(F)cc5)CC4)cc3F)ccnc2cc1OCCCN1CCOCC1 [Foretinib] (partner 0.25 µM)
In short: as §1

[4] = compound: CN(NC(=O)CC(=O)NN(C)C(=S)c1ccccc1)C(=S)c1ccccc1 [Elesclomol] + Cc1cc(Nc2cc(N3CCN(C)CC3)nc(Sc3ccc(NC(=O)C4CC4)cc3)n2)n[nH]1 [Tozasertib] (partner 0.1 µM)
In short: as §1

[5] = compound: CN(NC(=O)CC(=O)NN(C)C(=S)c1ccccc1)C(=S)c1ccccc1 [Elesclomol] + O=C(CCCCCCC(=O)Nc1ccccc1)NO [Vorinostat] (partner 1 µM)
In short: as §1

Cell Line	relative viability ([1]; first compound 0.003162 µM)	relative viability ([1]; first compound 0.01 µM)	relative viability ([1]; first compound 0.03162 µM)	relative viability ([1]; first compound 0.1 µM)	relative viability ([2]; first compound 0.003162 µM)	relative viability ([2]; first compound 0.01 µM)	relative viability ([2]; first compound 0.03162 µM)	relative viability ([2]; first compound 0.1 µM)	relative viability ([3]; first compound 0.003162 µM)	relative viability ([3]; first compound 0.01 µM)	relative viability ([3]; first compound 0.03162 µM)	relative viability ([3]; first compound 0.1 µM)	relative viability ([4]; first compound 0.003162 µM)	relative viability ([4]; first compound 0.01 µM)	relative viability ([4]; first compound 0.03162 µM)	relative viability ([4]; first compound 0.1 µM)	relative viability ([5]; first compound 0.003162 µM)	relative viability ([5]; first compound 0.01 µM)	relative viability ([5]; first compound 0.03162 µM)	relative viability ([5]; first compound 0.1 µM)
NCI-H1651	0.859	0.931	0.872	0.655	0.944	0.361	0.157	0.0878	0.727	0.436	0.0766	0.0932	0.6	0.601	0.116	0.108	0.557	0.527	0.519	0.434
NCI-H1666	0.826	0.334	0.278	0.172	0.962	0.788	0.521	0.484	1.06	0.88	0.621	0.509	0.579	0.457	0.375	0.403	1.05	0.91	0.836	0.714
NCI-H1734	0.957	0.738	0.405	0.12	0.189	0.14	0.122	0.108	0.882	0.679	0.221	0.126	0.276	0.24	0.126	0.0951	0.859	0.592	0.207	0.101
NCI-H1755	1.06	0.831	0.951	0.304	0.418	0.257	0.452	0.284	0.935	0.887	0.922	0.474	0.625	0.47	0.421	0.288	0.742	0.637	0.787	0.364
NCI-H1915	0.857		1.01	0.526	0.771		0.768	0.331	1.05		1.08	0.793	0.412		0.397	0.258	0.517	0.324	0.573	0.205
NCI-H1975	0.351	0.316	0.193	0.109	0.126	0.133	0.133	0.115	0.943	0.832	0.311	0.164	0.733	0.517	0.118	0.0791	0.765	0.648	0.183	0.12
NCI-H1993	1.07	1.05	0.49	0.493	0.764	0.595	0.466	0.429	0.772	0.671	0.553	0.533	0.568	0.491	0.452	0.401	0.897	0.817	0.469	0.288
NCI-H2009	0.929	0.229	0.115	0.0727	0.977	0.494	0.167	0.116	1.2	0.97	0.207	0.171	0.684	0.219	0.112	0.0954	0.679	0.279	0.162	0.0886
NCI-H2023	0.744	0.374	0.146	0.0637	0.658	0.376	0.134	0.0435	0.67	0.565	0.0376	0.051	0.282	0.192	0.0576	0.0475	0.418	0.0842	0.0465	0.0461
NCI-H2085	0.938	0.662	0.577	0.349	0.421	0.393	0.321	0.248	1.09	0.658	0.462	0.271	0.76	0.703	0.529	0.457	0.835	0.783	0.451	0.308
NCI-H2087	0.896	0.49	0.502	0.495	0.158	0.189	0.139	0.0928	0.936	0.767	0.577	0.299	0.18	0.187	0.158	0.0781	0.528	0.448	0.431	0.313
NCI-H2126	1.11	1.08	1.11	1.17	0.883	0.801	0.338	0.325	1.19	0.943	0.435	0.201	0.792	0.751	0.359	0.337	0.852	0.642	0.745	0.577
NCI-H2228	0.926	0.893	0.422	0.0364	0.163	0.152	0.123	0.0703	0.863	0.844	0.252	0.054	0.242	0.257	0.166	0.051	0.628	0.177	0.125	0.0717
NCI-H2347	0.929	0.765	0.891	0.544	0.318	0.557	0.282	0.25	1.06	0.701	0.482	0.942	0.683	0.424	0.264	0.248	0.572	0.527	0.471	0.303
NCI-H2405	0.959	0.842	0.515	0.458	0.684	0.554	0.265	0.299	1.04	0.663	0.336	0.292	0.691	0.47	0.292	0.315	0.933	0.415	0.314	0.276
NCI-H3122	1.05	0.994	0.957	0.409	0.083	0.113	0.0663	0.0832	1.01	0.961	0.839	0.135	0.329	0.118	0.0927	0.0898	0.652	1.02	0.881	0.111
PC-3 [JPC-3]	0.82	0.73	0.764	0.755	0.706	0.612	0.701	0.447	0.996	1.02	1.17	0.559	0.913	0.783	0.941	0.569	0.779	0.489	0.466	0.372
PC-14	0.862	0.244	0.0404	0.0297	0.11	0.0979	0.0814	0.0429	1.02	0.827	0.484	0.0715	0.502	0.0652	0.0256	0.0175	0.0807	0.0343	0.0162	0.0149
RERF-LC-KJ	0.943	0.536	0.322	0.276	0.656	0.418	0.34	0.457	0.858	0.812	0.522	0.323	0.264	0.239	0.208	0.116	0.445	0.406	0.473	0.256
SK-LU-1	1.45	0.424	0.38	0.116	0.206	0.193	0.158	0.124	0.803	0.668	0.459	0.193	0.336	0.271	0.238	0.15	0.83	0.659	0.471	0.336
SW 1573	1.02	0.174	0.105	0.103	0.154	0.0972	0.0704	0.0142	0.769	0.65	0.165	0.0891	0.133	0.119	0.0792	0.0199	0.331	0.107	0.112	0.0259
UMC-11	0.802	0.495	0.491	0.352	1.04	1.02	0.604	0.413	1.01	0.91	0.789	0.482	0.205	0.199	0.185	0.168	0.391	0.333	0.411	0.255
